IC50 data for eleven molecules are collected here from ChEMBL document CHEMBL4041476, “Design, selective alkylation and X-ray crystal structure determination of dihydro-indolyl-1,2,4-triazole-3-thione and its 3-benzylsulfanyl analogue as potent anticancer agents” (Eur J Med Chem, 2017).

One experiment concerns MCF7. In words: Antiproliferative activity against human MCF7 cells after 48 hrs by SRB assay. Type of experiment: functional, cell-based. To be noted: MCF7, 48 h. On the technique in general: In SRB staining, fixed cells bind dye roughly in proportion to their protein.
The next experiment relates to HepG2. Briefly: Antiproliferative activity against human HepG2 cells after 48 hrs by SRB assay. The experiment is classed as functional, cell-based. The following applies: HepG2, 48 h.

SMILES strings stand for the structures. Converted amounts (≈) assume the structure as drawn.

With `S=c1nc(-c2cc3ccccc3[nH]2)[nH][nH]1`, the IC50 was found to be 13.8 µg/mL (≈ 63.8 µM) in the experiment with MCF7 and 15.9 µg/mL (≈ 73.5 µM) in the experiment with HepG2.
Consider `CC(=O)N[C@@H]1[C@@H](OC(C)=O)[C@H](OC(C)=O)[C@@H](COC(C)=O)O[C@H]1n1nc(SCc2ccccc2)nc1-c1cc2ccccc2[nH]1`, for which the IC50 was 15.9 µg/mL (≈ 25 µM) in the experiment with MCF7 and 16.6 µg/mL (≈ 26.1 µM) in the experiment on HepG2.
In the same order, the values of `OCCn1nc(-c2cc3ccccc3[nH]2)nc1SCc1ccccc1` are 14.6 µg/mL (≈ 41.7 µM) and 12.1 µg/mL (≈ 34.5 µM).
The like results for `OCCCn1nc(SCc2ccccc2)nc1-c1cc2ccccc2[nH]1` were, in that order, 16.2 µg/mL (≈ 44.4 µM) and 11.5 µg/mL (≈ 31.6 µM).
With `CC(=O)N[C@@H]1[C@@H](OC(C)=O)[C@H](OC(C)=O)[C@@H](COC(C)=O)O[C@H]1n1nc(-c2cc3ccccc3[nH]2)nc1SCc1ccccc1`, the half-inhibitory concentration (IC50) with MCF7 and in the experiment on HepG2 was over 100 µg/mL each time.
`c1ccc(CSc2nc(-c3cc4ccccc4[nH]3)n[nH]2)cc1`: the values for the half-maximal inhibitory concentration (IC50) with MCF7 and in the experiment with HepG2 were 4.53 µg/mL (≈ 14.8 µM) and 3.58 µg/mL (≈ 11.7 µM), respectively.
In the same order, the values of `C=CCn1nc(-c2cc3ccccc3[nH]2)nc1SCc1ccccc1` are 15.5 µg/mL (≈ 44.7 µM) and 15.9 µg/mL (≈ 45.9 µM).
In the same order, the values of `CC(=O)OC[C@H]1O[C@@H](n2nc(SCc3ccccc3)nc2-c2cc3ccccc3[nH]2)[C@H](OC(C)=O)[C@@H](OC(C)=O)[C@@H]1OC(C)=O` are 16 µg/mL (≈ 25.1 µM) and 16.1 µg/mL (≈ 25.3 µM).
The like results for `c1ccc(CSc2nc(-c3cc4ccccc4[nH]3)nn2Cc2ccccc2)cc1` were, in that order, 10.8 µg/mL (≈ 27.2 µM) and 17.9 µg/mL (≈ 45.1 µM).
As to `c1ccc(CSc2nc(-c3cc4ccccc4[nH]3)n(Cc3ccccc3)n2)cc1`, the half-inhibitory concentration (IC50) was 14.8 µg/mL (≈ 37.3 µM) with MCF7 and 16.3 µg/mL (≈ 41.1 µM) with HepG2.
For the molecule `COc1cccc2c1C(=O)c1c(O)c3c(c(O)c1C2=O)C[C@@](O)(C(=O)CO)C[C@@H]3O[C@H]1C[C@H](N)[C@H](O)[C@H](C)O1` [DOXORUBICIN], the IC50 in the experiment on MCF7 and in the experiment with HepG2 was 4 µg/mL (≈ 7.36 µM) throughout.

Broadly, the IC50 is the concentration that inhibits the measured activity by half. Higher therefore signals weaker potency in that assay.
